Measured values as given in PubChem BioAssay (NCI).
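Where inhibition never reached the appropriate level, the endpoint shown equals the highest concentration tested. Otherwise, values were interpolated linearly from a five-concentration, 48-hour dose response in 96-well plates. At the TGI there is no net growth.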

Experiments:
Assay in all cases: growth of human tumour cells (NCI), 48 h
[1] = system: NCI/ADR-RES ovarian
[2] = system: A549 NSCLC
[3] = system: T-47D breast
[4] = system: SF-539 CNS
[5] = system: OVCAR-5 ovarian
[6] = system: SN12C renal
[7] = system: DU-145 prostate
[8] = system: SR leukemia
[9] = system: HL-60(TB) leukemia
[10] = system: HOP-92 NSCLC
[11] = system: OVCAR-4 ovarian
[12] = system: PC-3 prostate
[13] = system: MDA-MB-435
[14] = system: RXF 393 renal
[15] = system: BT-549 breast
[16] = system: ACHN renal
[17] = system: HT29 colon
[18] = system: HCT-116 colon
[19] = system: OVCAR-3 ovarian
[20] = system: SK-MEL-2 melanoma
[21] = system: IGROV1 ovarian
[22] = system: NCI-H226 lung
[23] = system: UACC-62 melanoma
[24] = system: KM12 colon
[25] = system: SNB-75 CNS
[26] = system: OVCAR-8 ovarian
[27] = system: 786-0 renal
[28] = system: SK-OV-3 ovarian
[29] = system: CAKI-1 renal
[30] = system: NCI-H522 lung
[31] = system: K-562 leukemia
[32] = system: UO-31 renal
[33] = system: COLO 205 colon
[34] = system: NCI-H23 lung
[35] = system: EKVX NSCLC
[36] = system: MOLT-4 leukemia
[37] = system: HCT-15 colon
[38] = system: SF-268 CNS
[39] = system: UACC-257 melanoma
[40] = system: NCI-H460 lung
[41] = system: U251 CNS
[42] = system: SK-MEL-28 melanoma
[43] = system: MDA-MB-231 breast
[44] = system: LOX IMVI melanoma
[45] = system: SNB-19 CNS
[46] = system: TK-10 renal
[47] = system: MALME-3M melanoma
[48] = system: RPMI-8226 leukemia
[49] = system: SF-295 CNS
[50] = system: M14 melanoma
[51] = system: HCC-2998 colon
[52] = system: HOP-62 NSCLC
[53] = system: MCF7 breast
[54] = system: CCRF-CEM leukemia
[55] = system: SK-MEL-5 melanoma
[56] = system: SW-620 colon
[57] = system: A498 renal
[58] = system: HS 578T breast

Q: Which TGI [1] does the source give for CC1(C)CC(=O)C2=C(C1)N(c1ccccc1)C1(O)C=CC(=O)C3=C(O)c4ccccc4C(=O)C321 (configuration not stated) here?
A: > 100 µM

Q: And the TGI [2]?
A: > 100 µM

Q: What about the TGI [3] of the same compound?
A: > 100 µM

Q: And the TGI [4]?
A: 70.6 µM

Q: What about the TGI [5] of the same compound?
A: > 100 µM

Q: What about the TGI [6] of the same compound?
A: > 100 µM

Q: What about the TGI [7] of the same compound?
A: > 100 µM

Q: What about the TGI [8] of the same compound?
A: 56.4 µM

Q: And the TGI [9]?
A: > 100 µM

Q: What about the TGI [10] of the same compound?
A: 58.5 µM

Q: What about the TGI [11] of the same compound?
A: 43.9 µM

Q: What about the TGI [12] of the same compound?
A: 63.5 µM

Q: What about the TGI [13] of the same compound?
A: 54 µM

Q: What about the TGI [14] of the same compound?
A: 39.6 µM

Q: And the TGI [15]?
A: 67.9 µM

Q: And the TGI [16]?
A: 46.2 µM

Q: What about the TGI [17] of the same compound?
A: 54 µM

Q: What about the TGI [18] of the same compound?
A: > 100 µM

Q: What about the TGI [19] of the same compound?
A: > 100 µM

Q: What about the TGI [20] of the same compound?
A: 60.9 µM

Q: And the TGI [21]?
A: 75.5 µM

Q: And the TGI [22]?
A: 42.4 µM

Q: And the TGI [23]?
A: 63.5 µM

Q: What about the TGI [24] of the same compound?
A: 86.3 µM

Q: And the TGI [25]?
A: 48.6 µM

Q: What about the TGI [26] of the same compound?
A: > 100 µM

Q: What about the TGI [27] of the same compound?
A: > 100 µM

Q: And the TGI [28]?
A: > 100 µM

Q: And the TGI [29]?
A: 86 µM

Q: What about the TGI [30] of the same compound?
A: 45.8 µM

Q: What about the TGI [31] of the same compound?
A: > 100 µM

Q: What about the TGI [32] of the same compound?
A: 47 µM

Q: What about the TGI [33] of the same compound?
A: > 100 µM

Q: And the TGI [34]?
A: 84 µM

Q: And the TGI [35]?
A: > 100 µM

Q: And the TGI [36]?
A: > 100 µM

Q: And the TGI [37]?
A: > 100 µM

Q: What about the TGI [38] of the same compound?
A: 52.1 µM

Q: And the TGI [39]?
A: > 100 µM

Q: What about the TGI [40] of the same compound?
A: 83.9 µM

Q: What about the TGI [41] of the same compound?
A: > 100 µM

Q: And the TGI [42]?
A: 39.3 µM

Q: And the TGI [43]?
A: > 100 µM

Q: What about the TGI [44] of the same compound?
A: 56.3 µM

Q: And the TGI [45]?
A: 54.5 µM

Q: And the TGI [46]?
A: 52.2 µM

Q: What about the TGI [47] of the same compound?
A: 66.8 µM

Q: What about the TGI [48] of the same compound?
A: > 100 µM

Q: What about the TGI [49] of the same compound?
A: > 100 µM

Q: What about the TGI [50] of the same compound?
A: > 100 µM

Q: What about the TGI [51] of the same compound?
A: 78.2 µM

Q: What about the TGI [52] of the same compound?
A: > 100 µM

Q: And the TGI [53]?
A: > 100 µM

Q: And the TGI [54]?
A: > 100 µM

Q: With Cc1ccc(-c2nc3n(c2/C=N\N=C(N)N)CCS3)cc1 as the compound, how does the TGI [1] read?
A: > 100 µM

Q: What about the TGI [2] of the same compound?
A: 29.5 µM

Q: And the TGI [3]?
A: 29 µM

Q: What about the TGI [4] of the same compound?
A: 28.5 µM

Q: What about the TGI [5] of the same compound?
A: 30.1 µM

Q: What about the TGI [6] of the same compound?
A: 29.6 µM

Q: And the TGI [55]?
A: 27.2 µM

Q: What about the TGI [7] of the same compound?
A: 26.8 µM

Q: What about the TGI [8] of the same compound?
A: > 100 µM

Q: And the TGI [9]?
A: 78.3 µM

Q: And the TGI [10]?
A: 34 µM

Q: And the TGI [11]?
A: 30.3 µM

Q: And the TGI [12]?
A: 28.5 µM

Q: And the TGI [13]?
A: 28.9 µM

Q: And the TGI [14]?
A: 29.6 µM

Q: And the TGI [16]?
A: 28.2 µM

Q: And the TGI [17]?
A: 27.3 µM

Q: What about the TGI [18] of the same compound?
A: 28.5 µM

Q: What about the TGI [56] of the same compound?
A: 30.8 µM

Q: And the TGI [57]?
A: 30.5 µM

Q: What about the TGI [20] of the same compound?
A: 25.9 µM

Q: What about the TGI [21] of the same compound?
A: 28.3 µM

Q: And the TGI [23]?
A: 32.1 µM

Q: And the TGI [24]?
A: 28.5 µM

Q: And the TGI [25]?
A: 23.2 µM

Q: What about the TGI [26] of the same compound?
A: 29.3 µM

Q: What about the TGI [27] of the same compound?
A: 29.3 µM

Q: What about the TGI [28] of the same compound?
A: 29 µM

Q: What about the TGI [29] of the same compound?
A: 34 µM

Q: What about the TGI [30] of the same compound?
A: 18.1 µM

Q: What about the TGI [31] of the same compound?
A: 44.2 µM

Q: What about the TGI [32] of the same compound?
A: 30.5 µM

Q: What about the TGI [33] of the same compound?
A: 27.7 µM

Q: What about the TGI [34] of the same compound?
A: 30.4 µM

Q: What about the TGI [35] of the same compound?
A: 30.9 µM

Q: What about the TGI [36] of the same compound?
A: > 100 µM

Q: What about the TGI [37] of the same compound?
A: 31.8 µM

Q: And the TGI [38]?
A: 29.3 µM

Q: What about the TGI [39] of the same compound?
A: 30.5 µM

Q: What about the TGI [40] of the same compound?
A: 32 µM

Q: And the TGI [41]?
A: 28.4 µM

Q: What about the TGI [42] of the same compound?
A: 29.4 µM

Q: What about the TGI [43] of the same compound?
A: 29.9 µM

Q: And the TGI [44]?
A: 31.9 µM

Q: And the TGI [45]?
A: 28.5 µM

Q: And the TGI [58]?
A: 41.4 µM

Q: What about the TGI [46] of the same compound?
A: 33.1 µM

Q: And the TGI [47]?
A: 31.2 µM

Q: And the TGI [48]?
A: 68.8 µM

Q: And the TGI [49]?
A: 24.6 µM

Q: What about the TGI [51] of the same compound?
A: 24.2 µM

Q: What about the TGI [52] of the same compound?
A: 28.6 µM

Q: What about the TGI [54] of the same compound?
A: 55.9 µM
